Measurements reported in the supplement of paper PMC10307832.

Key:
Experiment in all cases: relative viability (nuclei count vs DMSO), 5 days (fraction); higher = more cells survive
[1] = compound: C1CC(C1)(C(=O)O)C(=O)O.[NH2-].[NH2-].[Pt+2] [Carboplatin] + CC(C)C[C@H](NC(=O)[C@H](Cc1ccccc1)NC(=O)c1cnccn1)B(O)O [Bortezomib] (partner 0.002 µM)
Procedure, shortened: (§1)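 One day after seeding in 1536-well plates, lung cancer cell lines were dosed by pin tool. Dosing was either single-drug or a fixed anchor-drug dose plus five library-drug doses (not always all listed) in √10 steps. After 5 days, nuclei were stained in one fix-and-stain step and counted on 4× images, and relative viability is the nuclei count of treated wells over that of vehicle wells, given as the median of duplicate plates.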

[2] = compound: C1CC(C1)(C(=O)O)C(=O)O.[NH2-].[NH2-].[Pt+2] [Carboplatin] + Cc1cc(Nc2cc(N3CCN(C)CC3)nc(Sc3ccc(NC(=O)C4CC4)cc3)n2)n[nH]1 [Tozasertib] (partner 0.1 µM)
Procedure, shortened: as §1

[3] = compound: CC[C@H](C)N1C=C(C2=C(C=C(C=C21)C3=CN=C(C=C3)N4CCNCC4)C(=O)NCC5=C(C=C(NC5=O)C)C)C [GSK126] + N=C(N)NC(=N)NCCc1ccccc1 [Phenformin] (partner 250 µM)
Procedure, shortened: as §1

[4] = compound: CC[C@H](C)N1C=C(C2=C(C=C(C=C21)C3=CN=C(C=C3)N4CCNCC4)C(=O)NCC5=C(C=C(NC5=O)C)C)C [GSK126] + Nc1ncn([C@H]2C[C@H](O)[C@@H](CO)O2)c(=O)n1 [Decitabine] (partner 2 µM)
Procedure, shortened: as §1

| Cell Line | relative viability ([1]; first compound 0.08 µM) | relative viability ([1]; first compound 0.253 µM) | relative viability ([1]; first compound 0.8 µM) | relative viability ([1]; first compound 2.53 µM) | relative viability ([1]; first compound 8 µM) | relative viability ([2]; first compound 0.08 µM) | relative viability ([2]; first compound 0.253 µM) | relative viability ([2]; first compound 0.8 µM) | relative viability ([2]; first compound 2.53 µM) | relative viability ([2]; first compound 8 µM) | relative viability ([3]; first compound 0.08 µM) | relative viability ([3]; first compound 0.253 µM) | relative viability ([3]; first compound 0.8 µM) | relative viability ([3]; first compound 2.53 µM) | relative viability ([3]; first compound 8 µM) | relative viability ([4]; first compound 0.08 µM) | relative viability ([4]; first compound 0.253 µM) | relative viability ([4]; first compound 0.8 µM) | relative viability ([4]; first compound 2.53 µM) | relative viability ([4]; first compound 8 µM) |
| --- | --- | --- | --- | --- | --- | --- | --- | --- | --- | --- | --- | --- | --- | --- | --- | --- | --- | --- | --- | --- |
| 201T | 1.18 | 1.11 | 1.13 | 1.14 | 1.06 | 0.988 | 0.933 | 0.985 | 0.942 | 0.89 | 0.478 | 0.46 | 0.443 | 0.437 | 0.387 | 0.865 | 0.899 | 0.916 | 0.86 | 0.946 |
| A549 |  |  |  |  |  |  |  |  |  |  | 0.245 | 0.169 | 0.126 | 0.131 | 0.114 | 0.224 | 0.299 | 0.26 | 0.253 | 0.272 |
| A-427 | 0.984 | 1.11 | 0.904 | 0.905 | 1.01 | 0.188 | 0.237 | 0.238 | 0.219 | 0.221 | 0.362 | 0.34 | 0.311 | 0.346 | 0.258 | 0.586 | 0.63 | 0.565 | 0.559 | 0.568 |
| ABC-1 | 0.291 | 0.442 | 0.354 | 0.355 | 0.335 | 0.208 | 0.201 | 0.164 | 0.186 | 0.207 | 0.243 | 0.262 | 0.268 | 0.244 | 0.242 | 1.14 | 0.907 | 0.885 | 1 | 1 |
| BEN | 0.837 | 0.889 | 0.988 | 0.898 | 0.782 | 0.588 | 0.633 | 0.469 | 0.486 | 0.433 | 0.268 | 0.243 | 0.234 | 0.232 | 0.217 | 0.834 | 0.658 | 0.78 | 0.901 | 0.744 |
| CAL-12T | 1.28 | 0.826 | 0.972 | 1.07 | 0.911 | 0.338 | 0.289 | 0.329 | 0.413 | 0.382 | 0.617 | 0.568 | 0.572 | 0.519 | 0.63 |  |  |  |  |  |
| COR-L23 | 0.887 | 0.987 | 0.918 | 0.707 | 0.355 | 0.237 | 0.217 | 0.186 | 0.144 | 0.148 | 0.504 | 0.445 | 0.437 | 0.435 | 0.404 | 0.467 | 0.373 | 0.389 | 0.448 | 0.433 |
| COR-L 105 | 0.89 | 0.745 | 0.832 | 0.794 | 0.424 | 0.37 | 0.337 | 0.348 | 0.359 | 0.345 | 0.5 | 0.547 | 0.596 | 0.529 | 0.513 | 0.591 | 0.629 | 0.653 | 0.575 | 0.667 |
| Calu-6 | 0.927 | 0.974 | 0.925 | 0.823 | 0.496 |  |  |  |  |  |  |  |  |  |  |  |  |  |  |  |
| ChaGo-K-1 | 1.08 | 0.837 | 0.916 | 0.786 | 0.406 | 0.231 | 0.224 | 0.215 | 0.213 | 0.192 | 0.541 | 0.535 | 0.446 | 0.415 | 0.431 | 0.526 | 0.506 | 0.525 | 0.537 | 0.544 |
| EBC-1 | 0.528 | 0.507 | 0.551 | 0.518 | 0.438 |  |  |  |  |  |  |  |  |  |  |  |  |  |  |  |
| EKVX | 1.06 | 1.13 | 1.01 | 1.06 | 0.976 | 0.439 | 0.371 |  | 0.381 | 0.38 | 0.229 | 0.252 | 0.246 | 0.218 | 0.231 | 0.343 | 0.383 | 0.39 | 0.351 | 0.301 |
| EMC-BAC-2 | 1.14 | 1.02 | 1.13 | 1.05 | 0.957 | 0.313 | 0.292 | 0.275 | 0.266 | 0.326 | 0.606 | 0.528 | 0.505 | 0.483 | 0.482 | 1.05 | 0.974 | 0.878 | 0.893 | 0.936 |
| EPLC-272H | 0.86 | 1.1 | 0.972 | 1.01 | 0.877 | 0.314 | 0.387 | 0.181 | 0.289 | 0.291 | 0.318 | 0.264 | 0.361 | 0.34 | 0.301 | 0.441 | 0.349 | 0.39 | 0.358 | 0.361 |
| H3255 | 0.832 | 0.762 | 0.874 | 0.865 | 0.526 | 0.829 | 0.603 | 0.577 | 0.52 | 0.525 | 0.354 | 0.382 | 0.352 | 0.341 | 0.368 | 0.479 | 0.628 | 0.665 | 0.502 | 0.684 |
| HARA | 1.06 | 1.13 | 1.09 | 1.01 | 0.939 | 0.146 | 0.122 | 0.09 | 0.11 | 0.11 | 0.607 | 0.434 | 0.476 | 0.367 | 0.38 | 0.628 | 0.629 | 0.403 | 0.519 | 0.402 |
| HCC-15 | 1.1 | 1.05 | 0.999 | 0.914 | 0.795 | 0.48 | 0.553 | 0.34 | 0.342 | 0.303 | 0.513 | 0.419 | 0.457 | 0.422 | 0.442 | 0.739 | 0.656 | 0.685 | 0.59 | 0.609 |
| HCC-44 | 0.968 | 0.882 | 0.833 | 0.864 | 0.785 | 1.14 | 0.949 | 0.803 | 0.603 | 0.517 | 0.23 | 0.194 | 0.186 | 0.192 | 0.243 | 0.918 | 1.06 | 1.06 | 0.89 | 0.971 |
